Source: the NIST ThermoML archive (doi:10.1016/j.fluid.2012.11.011)
Numbers after ± are expanded uncertainties.

Assay: osmotic coefficient (dimensionless); mn = molality of the nth substance listed, in mol/kg
Details: 298.15 K, Liquid, isopiestic method

CC1(C)S[C@@H]2[C@H](NC(=O)[C@H](N)c3ccccc3)C(=O)N2[C@H]1C(=O)[O-].[Na+] [Ampicillin Sodium] + O
Details	osmotic coefficient
2.467 kPa, m1 = 7.468	0.93 ± 0.05
2.565 kPa, m1 = 6.773	0.867 ± 0.05
2.654 kPa, m1 = 5.991	0.822 ± 0.051
2.747 kPa, m1 = 5.699	0.696 ± 0.051
2.901 kPa, m1 = 4.439	0.553 ± 0.053
2.908 kPa, m1 = 4.261	0.562 ± 0.053
2.926 kPa, m1 = 4.103	0.54 ± 0.053
2.942 kPa, m1 = 3.839	0.538 ± 0.053
2.982 kPa, m1 = 3.301	0.513 ± 0.053
3.005 kPa, m1 = 2.932	0.504 ± 0.053
3.006 kPa, m1 = 2.958	0.499 ± 0.053
3.008 kPa, m1 = 2.867	0.506 ± 0.053
3.011 kPa, m1 = 2.855	0.498 ± 0.053
3.031 kPa, m1 = 2.397	0.519 ± 0.053
3.032 kPa, m1 = 2.398	0.514 ± 0.053
3.052 kPa, m1 = 1.912	0.548 ± 0.053
3.066 kPa, m1 = 1.699	0.546 ± 0.053
3.076 kPa, m1 = 1.476	0.563 ± 0.057
3.079 kPa, m1 = 1.392	0.578 ± 0.054
3.081 kPa, m1 = 1.369	0.575 ± 0.054
3.098 kPa, m1 = 1.134	0.564 ± 0.054
3.099 kPa, m1 = 1.093	0.576 ± 0.054
3.102 kPa, m1 = 0.9835	0.612 ± 0.075
3.103 kPa, m1 = 0.9725	0.612 ± 0.055
3.103 kPa, m1 = 1.029	0.578 ± 0.091
3.104 kPa, m1 = 1.015	0.576 ± 0.055
3.111 kPa, m1 = 0.8951	0.586 ± 0.056
3.113 kPa, m1 = 0.8284	0.612 ± 0.059
3.113 kPa, m1 = 0.8511	0.591 ± 0.058
3.118 kPa, m1 = 0.7369	0.617 ± 0.059
3.119 kPa, m1 = 0.6767	0.67 ± 0.059
3.119 kPa, m1 = 0.6922	0.651 ± 0.06
3.119 kPa, m1 = 0.7007	0.644 ± 0.06
3.119 kPa, m1 = 0.7507	0.597 ± 0.056
3.13 kPa, m1 = 0.5215	0.672 ± 0.058
3.131 kPa, m1 = 0.525	0.654 ± 0.056
3.131 kPa, m1 = 0.5325	0.648 ± 0.058
3.132 kPa, m1 = 0.47	0.72 ± 0.066
3.133 kPa, m1 = 0.4627	0.704 ± 0.06
3.139 kPa, m1 = 0.3871	0.705 ± 0.077
3.144 kPa, m1 = 0.3032	0.75 ± 0.055
3.145 kPa, m1 = 0.3044	0.714 ± 0.071
3.155 kPa, m1 = 0.1575	0.856 ± 0.05
3.162 kPa, m1 = 0.0754	0.885 ± 0.12
3.17 kPa, m1 = 0	1 ± 0.07

CC1(C)S[C@@H]2[C@H](NC(=O)Cc3ccccc3)C(=O)N2[C@H]1C(=O)[O-].[Na+] + O
Details	osmotic coefficient
2.442 kPa, m1 = 9.082	0.796 ± 0.051
2.452 kPa, m1 = 9.136	0.779 ± 0.051
2.606 kPa, m1 = 7.249	0.749 ± 0.051
2.623 kPa, m1 = 7.416	0.708 ± 0.051
2.757 kPa, m1 = 5.709	0.678 ± 0.051
2.901 kPa, m1 = 3.775	0.652 ± 0.052
2.919 kPa, m1 = 3.9	0.585 ± 0.052
2.93 kPa, m1 = 3.429	0.636 ± 0.052
2.93 kPa, m1 = 3.558	0.612 ± 0.052
2.958 kPa, m1 = 3.303	0.582 ± 0.052
2.986 kPa, m1 = 2.627	0.63 ± 0.052
2.989 kPa, m1 = 2.675	0.61 ± 0.052
2.989 kPa, m1 = 2.704	0.603 ± 0.052
3.002 kPa, m1 = 2.483	0.608 ± 0.052
3.006 kPa, m1 = 2.489	0.592 ± 0.053
3.007 kPa, m1 = 2.326	0.629 ± 0.053
3.007 kPa, m1 = 2.366	0.62 ± 0.053
3.009 kPa, m1 = 2.334	0.618 ± 0.053
3.033 kPa, m1 = 2.001	0.612 ± 0.052
3.049 kPa, m1 = 1.757	0.616 ± 0.053
3.05 kPa, m1 = 1.757	0.61 ± 0.053
3.068 kPa, m1 = 1.28	0.705 ± 0.053
3.089 kPa, m1 = 1.073	0.672 ± 0.054
3.091 kPa, m1 = 1.085	0.647 ± 0.054
3.123 kPa, m1 = 0.457	0.903 ± 0.066
3.126 kPa, m1 = 0.4044	0.966 ± 0.066
3.17 kPa, m1 = 0	1 ± 0.052
